Experimental data published in the NIST ThermoML archive (doi:10.1021/je200434a).

Settings: 101.33 kPa, Liquid; for viscosity: Concentric cylinders viscometry; for mass density: Vibrating tube method

CCCCOS(=O)(=O)[O-].CC[n+]1ccn(C)c1 [3-ethyl-1-methylimidazolium butyl sulfate]
Settings | mass density [kg/m3] | viscosity [mPa·s]
283.15 K | – | 468.4
288.15 K | – | 332.5
293.15 K | 1179.68 | 242.3
294.15 K | 1178.99 | –
295.15 K | 1178.3 | –
296.15 K | 1177.62 | –
297.15 K | 1176.93 | –
298.15 K | 1176.24 | 180.8
299.15 K | 1175.55 | –
300.15 K | 1174.87 | –
301.15 K | 1174.19 | –
302.15 K | 1173.5 | –
303.15 K | 1172.82 | 137.9
304.15 K | 1172.14 | –
305.15 K | 1171.46 | –
306.15 K | 1170.78 | –
307.15 K | 1170.11 | –
308.15 K | 1169.43 | 107.2
309.15 K | 1168.75 | –
310.15 K | 1168.08 | –
311.15 K | 1167.41 | –
312.15 K | 1166.73 | –
313.15 K | 1166.06 | 84.8
314.15 K | 1165.39 | –
315.15 K | 1164.73 | –
316.15 K | 1164.06 | –
317.15 K | 1163.39 | –
318.15 K | 1162.73 | 68.1
319.15 K | 1162.06 | –
320.15 K | 1161.4 | –
321.15 K | 1160.74 | –
322.15 K | 1160.07 | –
323.15 K | 1159.41 | 55.6
324.15 K | 1158.76 | –
325.15 K | 1158.1 | –
326.15 K | 1157.43 | –
327.15 K | 1156.78 | –
328.15 K | 1156.12 | 45.9
329.15 K | 1155.47 | –
330.15 K | 1154.81 | –
331.15 K | 1154.16 | –
332.15 K | 1153.51 | –
333.15 K | 1152.85 | 38.4
334.15 K | 1152.2 | –
335.15 K | 1151.55 | –
336.15 K | 1150.9 | –
337.15 K | 1150.25 | –
338.15 K | 1149.6 | 32.4
339.15 K | 1148.95 | –
340.15 K | 1148.3 | –
341.15 K | 1147.65 | –
342.15 K | 1147.01 | –
343.15 K | 1146.37 | 27.7
344.15 K | 1145.72 | –
345.15 K | 1145.07 | –
346.15 K | 1144.43 | –
347.15 K | 1143.78 | –
348.15 K | 1143.14 | 23.8
349.15 K | 1142.5 | –
350.15 K | 1141.85 | –
351.15 K | 1141.21 | –
352.15 K | 1140.57 | –
353.15 K | 1139.93 | 20.7
354.15 K | 1139.29 | –
355.15 K | 1138.65 | –
356.15 K | 1138.01 | –
357.15 K | 1137.37 | –
358.15 K | 1136.73 | 18.1
359.15 K | 1136.09 | –
360.15 K | 1135.45 | –
361.15 K | 1134.82 | –
362.15 K | 1134.18 | –
363.15 K | 1133.54 | 16
368.15 K | – | 14.2
373.15 K | – | 12.6
